{"source": "patent US20140045805A1", "about": "“Fragrance Compositions and Other Compositions Which Contain Naturally Occurring Substances Found in Corals” (priority 2007, published 2014)", "key": {"[1]": {"tested_on": "healthy volunteers (men and women)", "test": "Behavioral effects by modified DABS-70 inventory after nasal exposure", "format": "in vivo, human", "settings": "for Sensuality cluster mean: modified DABS-70, items scored 0-4", "procedure": "We assessed the resulting physiological responses and behavioral changes induced by nasal exposure to 12 ng pregna-5,20-dien-3β-ol in 76 volunteers (38 women and 38 men), age 18 to 46 (Table 1) using a placebo-controlled, single blind and crossover study design. The items of the modified DABS-70 were rearranged during consecutive administrations, in order to minimize the effect of learning.\nForty of the items on the standard DABS-70 questionnaire are descriptions of “ways people feel”, and subjects indicate whether they had experienced each emotion “never”, “rarely”, “sometimes”, “frequently”, or “always” in the last two weeks. The remaining 30 items on the standard DABS-70 questionnaire are personality characteristics for which subjects describe themselves as “not at all,” “a little bit,” “moderately” “quite a bit” or “extremely,” depending on the degree to which they feel each trait is typical of them. In the modified DABS-70 questionnaire, sixty-seven items were selected and assessed and during the testing the questions were randomized to minimize or prevent “learning” the questionnaire by the volunteers. This psychometric instrument was chosen because several items were of a sexual connotation and could be used to quantify the effects of pregna-5,20-dien-3β-ol on sexuality.\nSubjects who participated were asked, as a baseline, to fill out the modified DABS-70 as to their personality characteristics and feelings as they currently perceived them. Each item was quantified ranging from an individual's perception of “not at all” (0) to “extremely” (4). At the beginning of the questionnaire was a statement that they might feel differently after the blind and randomized exposure to the contents of a perfumery grade smelling strip positioned on the upper lip. The baseline electrophysiological measurements were performed after the questionnaire was completed, and again 5 minutes before the second randomized exposure (FIG. 3). Twenty minutes after the first randomized exposure to control or pregna-5,20-dien-3β-ol and again 20 minutes after the second randomized exposure to control or pregna-5,20-dien-3β-ol (in both instances, 5 minutes after the second and fourth set of electrophysiological measurements), the modified DABS-70 was administered again (FIG. 4). This task took approximately 10 minutes to complete, and the order of the questions of each consecutive modified DABS-70 administered was rearranged in order to minimize the effect of learning during prior administration of the test.\nActive substance (pregna-5,20-dien-3β-ol) and control were freshly prepared on 0.7 cm×10 cm perfumery grade smelling strips 24 hours before the experiment. A perfumery grade smelling strip was positioned on the upper lip of the subject for delivery of control or active substance to the nasal passages for a period of 20 minutes. Each breath carried vapors of pregna-5,20-dien-3β-ol or control (air) from the paper strip to the nasal passages.\nPerfumery grade smelling strips containing either pregna-5,20-dien-3β-ol or control were prepared as follows: 100 μl of stock solution containing 100 mg pregna-5,20-dien-3β-ol/10 mL ethanol (95%) was added to a clean paper strip. Ethanol was allowed to evaporate overnight in a clean fume hood, and 1 mg of dry crystals of pregna-5,20-dien-3β-ol remained embedded in the dried perfumery grade smelling strip. Control was a perfumery grade smelling strip prepared following the same procedure but the solution was devoid of active substance.\nThe following assumptions were used to calculate the quantity of pregna-5,20-dien-3β-ol delivered to the nasal passages during a study session: a) the quantity of pregna-5,20-dien-3β-ol arriving to the nasal passages with each breath is ≈40 pg (determined as described below); b) the average respiratory rate at rest in men and women is ≈15 breaths per minute; and c) the subject was exposed to pregna-5,20-dien-3β-ol for 20 min during the entire study session. […]"}, "[2]": {"tested_on": "healthy volunteers (men and women)", "test": "Behavioral effects by modified DABS-70 inventory after nasal exposure", "format": "in vivo, human", "settings": "12 ng nasal"}, "[3]": {"settings": "MALE, 12 ng nasal, modified DABS-70 item"}, "[4]": {"settings": "men (N = 38), 12 ng nasal over 20 min, modified DABS-70"}, "[5]": {"settings": "men and women, regardless of gender, 12 ng nasal, p<0.0001"}, "[6]": {"settings": "women (N = 38), 12 ng nasal over 20 min, modified DABS-70"}}, "data": [{"compound": "C=C[C@H]1CC[C@H]2[C@@H]3CC=C4C[C@@H](O)CC[C@]4(C)[C@H]3CC[C@]12C", "note": "[pregna-5,20-dien-3β-ol, Pregna-5,20-dien-3β-ol]", "values": [{"measurement": "ENERGETIC item, ACTIVE MEAN", "setting": "[1]; FEMALE, 12 ng nasal, modified DABS-70 item", "value": 2.07}, {"measurement": "LOVING item, ACTIVE MEAN", "setting": "[1]; [3]", "value": 2.42}, {"measurement": "WARM item, ACTIVE MEAN", "setting": "[1]; [3]", "value": 2.25}, {"measurement": "Arousal/Excitement cluster mean", "setting": "[1]; [4]", "value": 2.006}, {"measurement": "Negativity cluster mean", "setting": "[1]; [4]", "value": 0.246}, {"measurement": "Personal Well-Being cluster mean", "setting": "[1]; [4]", "value": 2.607}, {"measurement": "Social Warmth/Friendliness cluster mean", "setting": "[1]; [4]", "value": 2.147}, {"measurement": "Sensuality cluster mean", "setting": "[1]; men (N = 38), 12 ng nasal over 20 min", "value": 1.286}, {"measurement": "Social Warmth and Friendliness cluster, overall response versus control", "setting": "[1]; men and women, regardless of gender, 12 ng nasal, p<0.00001", "value": "active>control"}, {"measurement": "Arousal and Excitement cluster, overall response versus control", "setting": "[1]; [5]", "value": "active>control"}, {"measurement": "Sensuality cluster, overall response versus control", "setting": "[1]; [5]", "value": "active>control"}, {"measurement": "Negativity cluster, response versus control", "setting": "[1]; men and women, 12 ng nasal", "value": "not associated with being exposed to active versus control treatment"}, {"measurement": "Arousal/Excitement cluster mean", "setting": "[1]; [6]", "value": 1.857}, {"measurement": "Negativity cluster mean", "setting": "[1]; [6]", "value": 0.238}, {"measurement": "Social Warmth/Friendliness cluster mean", "setting": "[1]; [6]", "value": 1.92}, {"measurement": "Sensuality cluster mean", "setting": "[1]; women (N = 38), 12 ng nasal over 20 min", "value": 1.446}, {"measurement": "Negativity cluster, response versus control", "setting": "[2]; listed as muricin aglycone", "value": "no effect on negativity"}, {"measurement": "Social Warmth and Friendliness cluster, overall response versus control", "setting": "[2]; regardless of gender, p<0.00001, listed as muricin aglycone", "value": "enhanced levels"}]}]}
